The text below walks through data of PMC7044277 (Nature Communications, 2020).

Several values for one entry are separate records, joined by “and”; a condition that tells them apart may be missing. Identical values can stand only once.

Common to all, as to type: cell-based
Holding throughout (set-up): GPCRome screening signal at PTGIR / GPCRome screening signal at PTH1R / GPCRome screening signal at PTH2R / GPCRome screening signal at QRFP / GPCRome screening signal at RXFP2 / GPCRome screening signal at RXFP3 / GPCRome screening signal at RXFP4 / GPCRome screening signal at S1PR2 / GPCRome screening signal at S1PR3 / GPCRome screening signal at S1PR4 / GPCRome screening signal at S1PR5 / GPCRome screening signal at SCTR / GPCRome screening signal at SSTR2 / GPCRome screening signal at SSSTR / GPCRome screening signal at SSTR4 / GPCRome screening signal at SSTR5 / GPCRome screening signal at SUCNR1 / GPCRome screening signal at TA1 / GPCRome screening signal at TAAR2 / GPCRome screening signal at TAAR5 / GPCRome screening signal at TAAR6 / GPCRome screening signal at TAAR8 / GPCRome screening signal at TACR1 / GPCRome screening signal at TACR2 / GPCRome screening signal at TACR3 / GPCRome screening signal at TBXA2R / GPCRome screening signal at TSHR / GPCRome screening signal at UTS2R / GPCRome screening signal at VIPR2 / GPCRome screening signal at GPR68 no V2 Tail / GPCRome screening signal at GRM2 / GPCRome screening signal at GRM3: reference not given here

Test [1] deals with T1, 320 non-olfactory GPCRs (Homo sapiens, UniProt Q9H1C0).
T1 construct: expressed in transfected cells; host or cells: HTLA cells
As to conditions: receptor GPR92.

The target in test [2] is T2, 320 non-olfactory GPCRs (Homo sapiens, UniProt Q9P1P5).
T2 construct: expressed in transfected cells; host or cells: HTLA cells
The settings on record: receptor TAAR2.

Test [3] concerns the target T3, 320 non-olfactory GPCRs (Homo sapiens, UniProt O95136).
T3 construct: expressed in transfected cells; host or cells: HTLA cells
As to conditions: receptor S1PR2.

In test [4] the target is T4, 320 non-olfactory GPCRs (Homo sapiens, UniProt P29371).
T4 construct: expressed in transfected cells; host or cells: HTLA cells
The settings on record: receptor TACR3.

[5] abbreviates: Fig_5f, single replicate values.
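For GPCRome agonism screen response in this document: fold over basal response of each receptor without drug.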

T2 sequence (Q9P1P5 whole entry): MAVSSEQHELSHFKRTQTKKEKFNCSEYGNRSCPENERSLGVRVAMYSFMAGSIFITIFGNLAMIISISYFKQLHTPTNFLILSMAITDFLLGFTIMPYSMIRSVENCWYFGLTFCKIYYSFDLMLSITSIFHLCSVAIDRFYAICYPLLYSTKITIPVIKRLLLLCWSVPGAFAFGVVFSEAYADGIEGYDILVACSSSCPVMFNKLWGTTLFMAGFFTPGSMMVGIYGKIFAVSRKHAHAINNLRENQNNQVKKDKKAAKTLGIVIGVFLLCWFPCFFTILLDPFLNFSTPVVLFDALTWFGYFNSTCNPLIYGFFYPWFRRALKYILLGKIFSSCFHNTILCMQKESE
T1 sequence (Q9H1C0 whole entry): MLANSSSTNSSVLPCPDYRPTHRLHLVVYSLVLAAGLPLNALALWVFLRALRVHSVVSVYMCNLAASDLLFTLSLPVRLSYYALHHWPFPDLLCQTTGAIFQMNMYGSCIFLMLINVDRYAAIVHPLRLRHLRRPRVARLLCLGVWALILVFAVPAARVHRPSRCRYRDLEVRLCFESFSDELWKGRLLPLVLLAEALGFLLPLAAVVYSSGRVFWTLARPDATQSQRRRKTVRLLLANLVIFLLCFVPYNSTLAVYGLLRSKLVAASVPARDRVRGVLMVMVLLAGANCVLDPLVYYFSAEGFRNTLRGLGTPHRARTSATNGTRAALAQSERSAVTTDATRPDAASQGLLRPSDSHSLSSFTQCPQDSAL
T4 sequence (P29371 whole entry): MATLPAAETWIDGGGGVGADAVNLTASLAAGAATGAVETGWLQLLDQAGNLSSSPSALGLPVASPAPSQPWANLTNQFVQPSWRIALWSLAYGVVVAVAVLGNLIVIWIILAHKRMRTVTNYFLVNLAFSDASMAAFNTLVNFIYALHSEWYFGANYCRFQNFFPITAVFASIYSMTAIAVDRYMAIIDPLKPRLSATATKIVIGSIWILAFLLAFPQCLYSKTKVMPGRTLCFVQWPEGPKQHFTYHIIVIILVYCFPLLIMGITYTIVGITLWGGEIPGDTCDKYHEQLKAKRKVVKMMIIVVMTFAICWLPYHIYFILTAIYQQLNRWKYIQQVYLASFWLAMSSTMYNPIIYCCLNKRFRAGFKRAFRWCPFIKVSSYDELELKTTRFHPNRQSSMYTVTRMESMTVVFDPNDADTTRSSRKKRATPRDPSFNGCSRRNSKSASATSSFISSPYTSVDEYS
T3 sequence (O95136 whole entry): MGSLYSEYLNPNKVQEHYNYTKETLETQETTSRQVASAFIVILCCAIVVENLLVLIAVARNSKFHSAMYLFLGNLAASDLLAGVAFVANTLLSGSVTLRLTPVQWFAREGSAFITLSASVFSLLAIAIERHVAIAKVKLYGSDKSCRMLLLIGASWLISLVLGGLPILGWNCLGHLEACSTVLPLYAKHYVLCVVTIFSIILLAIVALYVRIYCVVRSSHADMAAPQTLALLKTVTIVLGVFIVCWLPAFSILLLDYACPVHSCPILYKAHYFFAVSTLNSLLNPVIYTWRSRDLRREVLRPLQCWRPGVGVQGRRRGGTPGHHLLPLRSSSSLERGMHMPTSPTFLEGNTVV

For the compound `CCOc1ccccc1CCC(C)NCC1(O)CCCCC1.Cl` (racemic) [Fig_5f], in test [1] (setting [5]), the “GPCRome screening signal at GPR92” value was 0.9709 and 0.5547 and 0.5858 and 0.9422. Further, in test [2] (setting [5]), the “GPCRome screening signal at TAAR2” value is 1.515 and 0.6858 and 1.3165 and 0.7903. The “GPCRome screening signal at S1PR2” value in test [3] (setting [5]) was 2.447 and 1.17 and 1.142 and 1.029. In addition, the “GPCRome screening signal at TACR3” value in test [4] (setting [5]) was 1.15 and 1.023 and 1.051 and 0.8328.
Take `CCOc1cccc2cc(C(C)NCC3(O)CCCCC3)oc12` (centres unmarked) [O4LE6]: the “GPCRome agonism screen response” value in test [1] (replicate values, Fig_4g) is 1.1613 and 0.7262 and 0.6248 and 2.678; in test [2] (replicate values, Fig_4g) it was 2.656 and 0.9121 and 0.6733 and 0.6661; in test [3] (replicate values, Fig_4g) it was 2.111 and 0.9213 and 3.313 and 1.2731; in test [4] (replicate values, Fig_4g), 1.119 and 1.001 and 1.104 and 0.992.
